From patent publication US20230416270A1, “NOVEL CAMPTOTHECIN DERIVATIVE, COMPOSITION COMPRISING SAME AND USE THEREOF” (priority 2020, published 2023) come the findings set out here.

As a reminder, the IC50 is the concentration needed to halve the response being measured.

The structures appear in SMILES notation. Numbered stars: 1 amine (or outer) side, 2 acyl side, 3 side chain; on linkers, the order of the positions; unused ones are H or OH. Square brackets hold non-standard residues; d marks the D form. Peptide text beside a SMILES is read from it. * marks the point of attachment. Exatecan = CC[C@@]1(O)C(=O)OCc2c1cc1n(c2=O)Cc2c-1nc1cc(F)c(C)c3c1c2[C@@H](N*)CC3; Hexanoyl(6-maleimido) = O=C1C=CC(=O)N1CCCCCC(=O)*; NHCH2OCH2CO = O=C(COCN[*:1])[*:2]

For one experiment, the system named is SK-BR-3 cells. The experiment in a line: Assay for antiproliferative activity against SK-BR-3 cells (CellTiter-Lumi, ATP content). It counts as cell-based. Conditions: Homo sapiens, SK-BR-3, 72 h, read-out: IC50 (nM), antiproliferative activity against SK-BR-3 cells. The method, then:
The activity of the antibody-drug conjugate of the present invention can be determined by the assay for the in-vitro antiproliferative activity against SK-BR-3 cells of a camptothecin derivative as a small molecule toxin.
SK-BR-3 cells were seeded into a 384-well plate (Fisher 142762) at 3000 cells per well. The next day, serially diluted compounds were added, and 72 hours after the addition, CellTiter-Lumi (Beyotime C0068XL) was added to measure the ATP content in the cells. The growth of the cells was evaluated, and relative IC50 values of the compounds against cell growth was calculated.
Turning to `CC[C@@]1(O)C(=O)OCc2c1cc1n(c2=O)Cc2c-1nc1cc(F)c(C)c3c1c2C(O)CS3` (some centres unmarked) [Compound 20], the IC50 was 5.83 nM.
On the same count and under the same terms, in the case of `CCc1c(F)cc2nc3c(c4c2c1SC[C@@H]4NC(=O)CO)Cn1c-3cc2c(c1=O)COC(=O)[C@]2(O)CC` [Compound 34] it was 5.84 nM.
On to `CC[C@@]1(O)C(=O)OCc2c1cc1n(c2=O)Cc2c-1nc1cc(F)c(C)c3c1c2[C@@H](NC(=O)[C@H](C)O)CS3` [Compound 44], for which the IC50 came to 6.29 nM.
Still for that read-out and setting: in the case of `CC[C@@]1(O)C(=O)OCc2c1cc1n(c2=O)Cc2c-1nc1cc(F)c(OC)c3c1c2[C@@H](NC(=O)CO)CS3` [Compound 35] it was 6.53 nM.
Take `CC[C@@]1(O)C(=O)OCc2c1cc1n(c2=O)Cc2c-1nc1cc(F)c(C)c3c1c2[C@@H](NC)CS3` [Compound 14-2]: the IC50 was found to be 4.13 nM.
Turning to `CC[C@@]1(O)C(=O)OCc2c1cc1n(c2=O)Cc2c-1nc1cc(F)c(C)c3c1c2[C@@H](N)CC3` [Exatecan, reference compound], the IC50 was 5.35 nM.
As to `CC[C@@]1(O)C(=O)OCc2c1cc1n(c2=O)Cc2c-1nc1cc(F)c(C)c3c1c2[C@@H](N)CO3` [Compound 7-2], the IC50 was found to be 2.68 nM.
Take `CC[C@@]1(O)C(=O)OCc2c1cc1n(c2=O)Cc2c-1nc1cc(F)c(C)c3c1c2[C@@H](NC(=O)CO)CO3` [Compound 41]: the IC50 was 6.47 nM.
With `CC[C@@]1(O)C(=O)OCc2c1cc1n(c2=O)Cc2c-1nc1cc(F)c(C)c3c1c2[C@@H](NC(=O)[C@H](O)C1CC1)CS3` [Compound 49], the IC50 stood at 7.32 nM.
In the case of `CC[C@@]1(O)C(=O)OCc2c1cc1n(c2=O)Cc2c-1nc1cc(F)c(C)c3c1c2[C@H](N)CS3` [Compound 1-1], the concentration for half-maximal inhibition (IC50) was 5.81 nM.
The same measure, in the same setting: in the case of `CC[C@@]1(O)C(=O)OCc2c1cc1n(c2=O)Cc2c-1nc1cc(F)c(C)c3c1c2C(N)CS3` (stereo partly drawn) [Compound 1, (9S)-1-amino-9-ethyl-5-fluoro-9-hydroxy-4-methyl-1,9,12,15-tetrahydro-13H-pyrano[3′, 4′:6,7]indolizino[1,2-b]thiopyrano[4,3,2-de]quinoline-10,13(2H)-dione] it was 2.98 nM.
Take `Cc1c(F)cc2nc3c(c4c2c1SC[C@@H]4NC(=O)CO)Cn1c-3cc2c(c1=O)COC(=O)[C@]2(O)CCF` [Compound 39]: the IC50 came out at 4.78 nM.
Turning to `CC[C@@]1(O)C(=O)OCc2c1cc1n(c2=O)Cc2c-1nc1cc(F)c(OC)c3c1c2[C@@H](N)CS3` [Compound 4-2], the IC50 came to 2.74 nM.
Turning to `CC[C@@]1(O)C(=O)OCc2c1cc1n(c2=O)Cc2c-1nc1cc(F)c(C)c3c1c2[C@@H](NC(=O)[C@@H](O)C1CC1)CS3` [Compound 48], the IC50 was 6.73 nM.
Same read-out and setting: as for `CC[C@@]1(O)C(=O)OCc2c1cc1n(c2=O)Cc2c-1nc1cc(F)c(C)c3c1c2[C@@H](N)CS3` [Compound 1-2], the figure is 1.73 nM.

Still in this experiment, the particulars now being: Homo sapiens; SK-BR-3, 72 hours after compound addition, relative IC50; read-out: IC50 (nM), antiproliferative activity against SK-BR-3 cells.
As for `CC[C@@]1(O)C(=O)OCc2c1cc1n(c2=O)Cc2cc3c(CN(C)C)c(O)ccc3nc2-1` [Topotecan, reference compound], the IC50 was determined as 58.3 nM.
On to `CCc1c(F)cc2nc3c(c4c2c1SC[C@@H]4N)Cn1c-3cc2c(c1=O)COC(=O)[C@]2(O)CC` [Compound 3-2], for which the IC50 stood at 2.85 nM.

The experiment is the same for the next values; noted with them: SK-BR-3, 72 hours after compound addition, relative IC50; read-out: IC50 (nM), antiproliferative activity against SK-BR-3 cells.
Take `CC[C@@]1(O)C(=O)OCc2c1cc1n(c2=O)Cc2c-1nc1cc(F)c(C)c3c1c2[C@@H](NC(=O)COCNC(=O)CNC(=O)[C@H](Cc1ccccc1)NC(=O)CNC(=O)CNC(=O)CCCCCN1C(=O)C=CC1=O)CC3` [Deruxtecan, reference compound] ({Hexanoyl(6-maleimido)}-GGFG[NHCH2OCH2CO]-Exatecan): the IC50 was 13.6 nM.

The experiment is the same for the next values; noted with them: SK-BR-3 antiproliferative activity, relative to exatecan.
Regarding `CC[C@@]1(O)C(=O)OCc2c1cc1n(c2=O)Cc2c-1nc1cc(F)c(C)c3c1c2[C@@H](N)CS3` [Compound 1-2], the “fold more active than exatecan” value came out at 2 fold.

In another experiment the test system is SK-BR-3 cells with high expression of HER2. The experiment in a line: cells. It is filed as cell-based. As to conditions: Homo sapiens, SK-BR-3, 144 h, read-out: IC50 (nM), antiproliferative activity of the antibody-drug conjugates against SK-BR-3 cells. An excerpt: SK-BR-3 cells with high expression of HER2 were selected as cell strains for in-vitro activity detection in the experiment and were used for evaluating the dose-effect relationship of the antibody-drug conjugates (ADCs) of the present invention on cell killing.
As for `CC[C@@]1(O)C(=O)OCc2c1cc1n(c2=O)Cc2c-1nc1cc(F)c(C)c3c1c2[C@@H](N)CC3` [Exatecan, reference compound], the 50% inhibitory concentration (IC50) worked out at 0.73 nM.
